The values that follow come from ChEMBL document CHEMBL4270495, “Oleanane-, ursane-, and quinone methide friedelane-type triterpenoid derivatives: Recent advances in cancer treatment” (Eur J Med Chem, 2017).

The test system of experiment [1] is BGC-823. In words: Cytotoxicity in human BGC823 cells assessed as reduction in cell viability incubated for 72 hrs by MTT assay. The format is functional, cell-based. The conditions noted are these: BGC-823, 72 h. (In general: Formazan colour is commonly taken as a measure of viable cells.)
Experiment [2] deals with PC-3. In words: Cytotoxicity in human PC3 cells assessed as reduction in cell viability incubated for 72 hrs by MTT assay. To be noted: PC-3, 72 h. The format is functional, cell-based.
In experiment [3] the test system is HeLa. In words: Cytotoxicity in human HeLa cells assessed as reduction in cell viability. The format is functional, cell-based.
Experiment [4] concerns BGC-823. Put plainly: Cytotoxicity in human BGC823 cells assessed as reduction in cell viability. The format is functional, cell-based.
Experiment [5] has as its system MCF7. In words: Cytotoxicity in human MCF7 cells assessed as reduction in cell viability incubated for 48 hrs by SRB assay. The format is functional, cell-based. The conditions noted are these: MCF7, 48 h. (The SRB assay estimates cell density from bound dye.)
A further experiment concerns MDA-MB-231. In words: Cytotoxicity in human MDA-MB-231 cells assessed as reduction in cell viability incubated for 48 hrs by SRB assay. The experiment is classed as functional. The conditions noted are these: MDA-MB-231, 48 h.
For experiment [6], the system named is A549. In words: Cytotoxicity in human A549 cells assessed as reduction in cell viability incubated for 72 hrs by CCK8 assay. To be noted: A549, 72 h. The format is functional, cell-based.
The test system of experiment [7] is MCF7. Put plainly: Cytotoxicity in human MCF7 cells assessed as reduction in cell viability incubated for 72 hrs by CCK8 assay. The conditions noted are these: MCF7, 72 h. The experiment is classed as functional, cell-based.
Experiment [8] has as its system HeLa. Put plainly: Cytotoxicity in human HeLa cells assessed as reduction in cell viability incubated for 72 hrs by CCK8 assay. The experiment is classed as functional, cell-based.
Another experiment concerns SGC-7901. In words: Cytotoxicity in human SGC7901 cells assessed as reduction in cell viability incubated for 72 hrs by CCK8 assay. The conditions noted are these: SGC-7901, 72 h. The format is functional, cell-based.
Experiment [9] has as its system PC-3. In words: Cytotoxicity in human PC3 cells assessed as reduction in cell viability incubated for 72 hrs by CCK8 assay. The format is functional, cell-based. To be noted: PC-3, 72 h.
Experiment [10] relates to A549. Put plainly: Cytotoxicity in human A549 cells assessed as reduction in cell viability incubated for 48 hrs by MTT assay. The format is functional, cell-based. To be noted: A549, 48 h.
Another experiment concerns T-24. Put plainly: Cytotoxicity in human T24 cells assessed as reduction in cell viability incubated for 48 hrs by MTT assay. The experiment is classed as functional, cell-based. To be noted: T-24, 48 h.
A short description of experiment [11]: Cytotoxicity in human SPCA2 cells assessed as reduction in cell viability incubated for 48 hrs by MTT assay. The experiment is classed as functional, cell-based. To be noted: SPCA2, 48 h.
The subject of a further experiment is HUVEC. In words: Cytotoxicity in HUVEC cells assessed as reduction in cell viability incubated for 48 hrs by MTT assay. To be noted: Homo sapiens. The format is cell-based.
Experiment [12] has as its system HT-29. Put plainly: Cytotoxicity in human HT-29 cells assessed as reduction in cell viability incubated for 96 hrs by SRB assay. The format is functional, cell-based. To be noted: HT-29, 96 h.
Experiment [13] deals with A549. In words: Cytotoxicity in human A549 cells assessed as reduction in cell viability incubated for 96 hrs by SRB assay. The format is functional, cell-based. To be noted: A549, 96 h.
The next experiment deals with NIH3T3. Put plainly: Cytotoxicity in mouse NIH/3T3 cells assessed as reduction in cell viability incubated for 96 hrs by SRB assay. The format is cell-based. The conditions noted are these: NIH3T3, 96 h.
For experiment [14], the system named is HepG2. Put plainly: Cytotoxicity in human HepG2 cells assessed as reduction in cell viability incubated for 48 hrs by MTT assay. The format is functional, cell-based. To be noted: HepG2, 48 h.
Experiment [15] relates to HeLa. In words: Cytotoxicity in human HeLa cells assessed as reduction in cell viability incubated for 48 hrs by MTT assay. The experiment is classed as functional, cell-based.
The subject of experiment [16] is BGC-823. In words: Cytotoxicity in human BGC823 cells assessed as reduction in cell viability incubated for 48 hrs by MTT assay. The format is functional, cell-based. The conditions noted are these: BGC-823, 48 h.
Another experiment has as its system AGS. In words: Cytotoxicity in human AGS cells assessed as reduction in cell viability incubated for 24 hrs by MTT assay. The format is functional, cell-based.
The nature of experiment [17]: Cytotoxicity in human HELF cells assessed as reduction in cell viability incubated for 24 hrs by MTT assay. The experiment is classed as cell-based.
Experiment [18] can be described thus: Cytotoxicity in human […] cells assessed as reduction in cell viability incubated for 72 hrs by MTT assay. The experiment is classed as functional, cell-based.
In the next experiment the test system is HMEC. Put plainly: Cytotoxicity in human HMEC cells assessed as reduction in cell viability incubated for 48 hrs by SRB assay. The format is cell-based.
Experiment [19] has as its system HepG2. Put plainly: Cytotoxicity in human HepG2 cells assessed as reduction in cell viability incubated for 72 hrs by CCK8 assay. The experiment is classed as functional, cell-based. The conditions noted are these: HepG2, 72 h.
The subject of experiment [20] is HT-29. In words: Cytotoxicity in human HT-29 cells assessed as reduction in cell viability incubated for 72 hrs by MTT assay. To be noted: HT-29, 72 h. The experiment is classed as functional, cell-based.
Experiment [21] has as its system HepG2. Put plainly: Cytotoxicity in human HepG2 cells assessed as reduction in cell viability incubated for 72 hrs by MTT assay. The experiment is classed as functional, cell-based. To be noted: HepG2, 72 h.
For another experiment, the system named is B16-F10. Put plainly: Cytotoxicity in mouse B16F10 cells assessed as reduction in cell viability incubated for 72 hrs by MTT assay. The format is functional, cell-based. To be noted: B16-F10, 72 h.
For experiment [22], the system named is HeLa. Put plainly: Cytotoxicity in human HeLa cells assessed as reduction in cell viability incubated for 72 hrs by MTT assay. The format is functional, cell-based.
Experiment [23] has as its system MCF7. Put plainly: Cytotoxicity in human MCF7 cells assessed as reduction in cell viability incubated for 72 hrs by MTT assay. The format is functional, cell-based. The conditions noted are these: MCF7, 72 h.
Another experiment concerns BJ. Put plainly: Cytotoxicity in human BJ cells assessed as reduction in cell viability incubated for 72 hrs by MTT assay. The experiment is classed as functional, cell-based.

What is called IC50 is the concentration that gives 50% inhibition. For orientation: GI50 means the concentration giving 50% growth inhibition.

A value given as a limit tells only on which side of the number the result lay.

On to `CCCC(=O)O[C@H]1CC[C@]2(C)[C@H]3CC=C4[C@@H]5CC(C)(C)CC[C@]5(C(=O)n5ccc(=O)[nH]c5=O)CC[C@@]4(C)[C@]3(C)CC[C@H]2C1(C)C`, for which the values for the IC50 with BGC-823 [1] and in the experiment with PC-3 [2] were 0.22 µM and 0.28 µM, respectively.

Regarding `CC(=O)O[C@H]1CC[C@]2(C)[C@H]3CC=C4[C@@H]5[C@@H](C)[C@H](C)CC[C@]5(C(=O)N5CCOCC5)CC[C@@]4(C)[C@]3(C)CC[C@H]2C1(C)C`, the IC50 in the experiment on HeLa [3] is 2.2 µM; with BGC-823 [4], above 10 µM.

`C[C@H]1[C@H](C)CC[C@]2(C(=O)O)CC[C@]3(C)C(=CC[C@@H]4[C@@]5(C)C[C@@H](O)[C@H](O)[C@@](C)(CO)[C@@H]5CC[C@]43C)[C@H]12` [ASIATIC ACID]: the results for the GI50 with MCF7 [5] and with MDA-MB-231 were 19.1 µM and 18.1 µM, respectively. Further, the half-inhibitory concentration (IC50) in the experiment with A549 [6] is 18.8 µM; with MCF7 [7] it was 32.8 µM; with HeLa [8], 4 to 55.1 µM; in the experiment with SGC-7901, 36.8 µM; in the experiment on PC-3 [9], 53.6 µM; in the experiment on A549 [10], 37.8 µM. Further, the results for the IC50 (in the experiment with T-24; in experiment [11]; with HUVEC) were 33.7 µM, 39.4 µM and above 100 µM, respectively.

`COC(=O)[C@]12CCC(C)(C)C[C@H]1C1=CC[C@@H]3[C@@]4(C)C[C@@H](O)[C@H](OS(N)(=O)=O)C(C)(C)[C@@H]4CC[C@@]3(C)[C@]1(C)CC2`: the IC50 with HT-29 [12] was 3.5 µM; with A549 [13], 4 µM; with NIH3T3, 2.2 µM.

Consider `CC(=O)O/N=C1\CC[C@]2(C)[C@H]3CC=C4[C@@H]5[C@@H](C)[C@H](C)CC[C@]5(C(=O)Nc5ccccc5)CC[C@@]4(C)[C@]3(C)CC[C@H]2C1(C)C`, for which the IC50 with HepG2 [14] stood at 21.2 µM; in the experiment with HeLa [15], 9.3 µM; with BGC-823 [16] it was 8.1 µM.

For the compound `C[C@H]1[C@H](C)CC[C@]2(C(=O)O)CC[C@]3(C)C(=CC[C@@H]4[C@@]5(C)CC[C@H](O)C(C)(C)[C@@H]5CC[C@]43C)[C@H]12` [URSOLIC ACID], the IC50 in the experiment with AGS was determined as 43.3 µM; in experiment [17], 21.3 µM; in experiment [18], 26.5 µM; in the experiment on HMEC, 39.3 µM. The GI50 with MCF7 [5] was determined as 21 µM; in the experiment on MDA-MB-231 it was 11.1 µM.

On to `COC(=O)C1CCCN1C(=O)[C@]12CC[C@@H](C)[C@H](C)[C@H]1C1=CC[C@@H]3[C@@]4(C)C[C@@H](OC(C)=O)[C@H](OC(C)=O)[C@@](C)(COC(C)=O)[C@@H]4CC[C@@]3(C)[C@]1(C)CC2` (stereo partly specified), for which the IC50 worked out at 0.9 µM with HepG2 [19]; 2.4 µM in the experiment with A549 [6]; 4.5 µM in the experiment with MCF7 [7]; 4.8 µM with HeLa [8]; 4.6 µM in the experiment with SGC-7901; 9.2 µM in the experiment with PC-3 [9].

For the compound `CC(=O)O[C@@H]1C[C@]2(C)[C@H]3CC=C4[C@@H]5CC(C)(C)CC[C@]5(C(=O)NCCCCCCCCCCC(=O)O)CC[C@@]4(C)[C@]3(C)CC[C@H]2C(C)(C)[C@H]1OC(C)=O`, the IC50 was 3.1 µM in the experiment on HT-29 [20], 14.2 µM in the experiment on HepG2 [21] and 2.4 µM in the experiment on B16-F10.

Take `COC(=O)[C@]12CC[C@@H](C)[C@H](C)[C@H]1C1=CC(=O)[C@@H]3[C@@]4(C)C(C=O)=C[C@@](C)(CO)[C@@H]4CC[C@@]3(C)[C@]1(C)CC2`: the IC50 is 0.3 µM with HeLa [22], 0.59 µM with HT-29 [20], 0.74 µM in the experiment with MCF7 [23] and 3.33 µM in the experiment on BJ.

For `CCCC(=O)O[C@H]1CC[C@]2(C)[C@H]3CC=C4[C@@H]5[C@@H](C)[C@H](C)CC[C@]5(C(=O)N5CCOCC5)CC[C@@]4(C)[C@]3(C)CC[C@H]2C1(C)C`, the IC50 in the experiment on HeLa [3] is above 10 µM; with BGC-823 [4] it was 9.7 µM.

For `COC(=O)[C@]12CC[C@@H](C)[C@H](C)[C@H]1C1=CC(=O)[C@@H]3[C@@]4(C)C(C=O)=C[C@@](C)(COS(C)(=O)=O)[C@@H]4CC[C@@]3(C)[C@]1(C)CC2`, the IC50 with HeLa [22] was determined as 0.24 µM; in the experiment with HT-29 [20], 0.59 µM; in the experiment on MCF7 [23] it was 0.65 µM; in the experiment with BJ, 2.43 µM.
